From PubChem BioAssay (NCI) come the findings set out here.

Molecules are shown by their SMILES.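 These data come from cells grown in 96-well plates and exposed to compound for 48 hours at five concentrations. GI50 = concentration required for 50% inhibition of growth. The concentration for full growth arrest is given as TGI.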

Some test systems named below: KM20L2 colon; MALME-3M melanoma; NCI/ADR-RES ovarian; IGROV1 ovarian; A498 renal; COLO 205 colon; NCI-H522 lung; SNB-78 CNS; SK-OV-3 ovarian; HCT-15 colon; HOP-92 NSCLC; PC-3 prostate; TK-10 renal; T-47D breast; MDA-MB-435; MDA-MB-231 breast; 786-0 renal.
Holding throughout (assay): NCI tumour cell line growth inhibition, 48 h

As to `CC(C)[C@](O)(C(=O)OCC1CC[N+]2([O-])CC[C@@H](O)C12)[C@H](C)O` (some centres undefined), the TGI in the assay on KM20L2 colon was above 375 µM; in the assay on MALME-3M melanoma, above 256 µM; in the assay on NCI/ADR-RES ovarian it was above 375 µM; in the assay on IGROV1 ovarian it was above 375 µM; with A498 renal, above 59.4 µM; in the assay with COLO 205 colon it was above 375 µM. Besides, the TGI in the assay with NCI-H522 lung, with SNB-78 CNS, with SK-OV-3 ovarian, with HCT-15 colon and in the assay on HOP-92 NSCLC was above 375 µM each time.

Turning to `Cc1ccc(S(=O)(=O)OC2C(C3COC(C)(C)O3)OC3OC(C)(C)OC32)cc1` (centres undefined), the TGI in the assay on MALME-3M melanoma, in the assay on PC-3 prostate, in the assay on NCI/ADR-RES ovarian, in the assay on IGROV1 ovarian, in the assay with A498 renal and in the assay with TK-10 renal was above 100 µM throughout. Moreover, the TGI with NCI-H522 lung, in the assay with T-47D breast, in the assay with MDA-MB-435, in the assay on MDA-MB-231 breast, with 786-0 renal and in the assay with HCT-15 colon was above 100 µM in each case. Also, in the assay on HOP-92 NSCLC, the TGI was above 100 µM.

With `Cc1ccc(-c2csc(=Nc3c(C)n(C)n(-c4ccccc4)c3=O)n2CCO)cc1`, the TGI in the assay with PC-3 prostate, in the assay with NCI/ADR-RES ovarian, in the assay on A498 renal, with TK-10 renal, with MDA-MB-435 and with MDA-MB-231 breast was above 100 µM each time. In addition, the TGI in the assay on SK-OV-3 ovarian, in the assay with HCT-15 colon and in the assay with HOP-92 NSCLC was above 100 µM in each case.

As to `CCCCN1C(=O)NC(Cc2ccccc2)C1=O` (centres undefined), the TGI with KM20L2 colon, in the assay with MALME-3M melanoma, with TK-10 renal, in the assay on NCI-H522 lung and in the assay on SNB-78 CNS was above 100 µM throughout.

On to `O=[n+]1c2ccccc2n([O-])c2cc(Br)ccc21`, for which the TGI with MALME-3M melanoma is 39.7 µM; in the assay with NCI/ADR-RES ovarian, 68.9 µM; with IGROV1 ovarian it was 18.8 µM; in the assay with A498 renal it was 40.2 µM; in the assay with TK-10 renal, 72.9 µM; in the assay with COLO 205 colon it was 57.2 µM. The TGI with NCI-H522 lung is 30.2 µM; with T-47D breast, 45.9 µM; with MDA-MB-435, 36.5 µM; in the assay with MDA-MB-231 breast, above 100 µM; in the assay with 786-0 renal, above 100 µM; in the assay on HCT-15 colon it was 32 µM.

For `CC#C[I+]c1ccccc1`, the TGI with KM20L2 colon is 36.1 µM; in the assay on MALME-3M melanoma, 38.2 µM; in the assay on IGROV1 ovarian, above 100 µM; in the assay on A498 renal, above 100 µM; with TK-10 renal, 30.4 µM; in the assay with COLO 205 colon, 26 µM. The TGI with NCI-H522 lung was determined as 13.1 µM; with SNB-78 CNS, 54.5 µM; with SK-OV-3 ovarian it was 99.1 µM; in the assay on 786-0 renal it was 28.4 µM; in the assay with HOP-92 NSCLC, 30.8 µM.

Regarding `COc1ccc(N2C(=O)C3c4[nH]c5cccc(C)c5c4C4CCC(C(C)(C)C)CC4C3C2=O)cc1` (centres undefined), the TGI in the assay on MALME-3M melanoma, with PC-3 prostate, with NCI/ADR-RES ovarian, with IGROV1 ovarian, in the assay with A498 renal and in the assay on TK-10 renal was above 10 µM throughout. Also, the TGI with COLO 205 colon, in the assay with NCI-H522 lung, in the assay on T-47D breast, in the assay with MDA-MB-435, in the assay on MDA-MB-231 breast and in the assay with SK-OV-3 ovarian was above 10 µM in each case. In the assay on HCT-15 colon, this compound returned a TGI above 10 µM.

With `COc1cc2c3c(n(CCCNCCCNCCCn4c5c(c6ccccc6c4=O)C(=O)c4ccccc4-5)c(=O)c2cc1OC)-c1cc2c(cc1C3=O)OCO2`, the GI50 in the assay on NCI/ADR-RES ovarian was above 40.5 µM; in the assay with IGROV1 ovarian, below 0.01 µM; in the assay on MDA-MB-435 it was 0.154 µM. Also, the TGI was above 67.1 µM in the assay with NCI/ADR-RES ovarian, above 100 µM in the assay with IGROV1 ovarian, 1.68 µM in the assay on MDA-MB-435 and 1.07 µM in the assay with 786-0 renal.

`CC(=O)Oc1ccccc1C(=O)O`: the TGI in the assay with MALME-3M melanoma, in the assay with PC-3 prostate, in the assay on NCI/ADR-RES ovarian, with TK-10 renal, with COLO 205 colon and in the assay with NCI-H522 lung was above 100 µM in each case. Further, the TGI in the assay with T-47D breast, with MDA-MB-435, with SK-OV-3 ovarian, in the assay on 786-0 renal and in the assay on HCT-15 colon was above 100 µM in each case.

Turning to `Clc1c(Cl)c2c(Cl)c(Cl)c1C[P+](c1ccccc1)(c1ccccc1)CC[P+](c1ccccc1)(c1ccccc1)Cc1c(Cl)c(Cl)c(c(Cl)c1Cl)C[P+](c1ccccc1)(c1ccccc1)CC[P+](c1ccccc1)(c1ccccc1)C2`, the TGI in the assay on KM20L2 colon came out at 12.9 µM; in the assay with MALME-3M melanoma, 7 µM; with IGROV1 ovarian, 12.4 µM; in the assay on A498 renal it was 24.4 µM; with TK-10 renal it was 9.41 µM; with COLO 205 colon, 2.89 µM. The TGI in the assay with NCI-H522 lung is 9.26 µM; in the assay on SNB-78 CNS it was 18.9 µM; in the assay on SK-OV-3 ovarian, 21.7 µM; with 786-0 renal, 19.5 µM; in the assay with HCT-15 colon, 24.6 µM; in the assay on HOP-92 NSCLC it was 6.31 µM.

As for `Cn1c(-c2ccc(/C=N\N3CCN(/N=C/c4ccc(-c5c[n+]6ccsc6n5C)cc4)CC3)cc2)c[n+]2ccsc12`, the TGI in the assay on PC-3 prostate was above 100 µM; in the assay with NCI/ADR-RES ovarian, above 100 µM; in the assay on IGROV1 ovarian, above 100 µM; with A498 renal it was 82.3 µM; in the assay with TK-10 renal, above 100 µM; in the assay with COLO 205 colon, 36.3 µM. For the same compound, the TGI in the assay with NCI-H522 lung was above 100 µM; with T-47D breast it was 53.8 µM; in the assay with MDA-MB-435 it was above 100 µM; with MDA-MB-231 breast it was 78.5 µM; in the assay with SK-OV-3 ovarian, above 100 µM; with 786-0 renal, above 100 µM. Moreover, the TGI in the assay with HCT-15 colon and in the assay with HOP-92 NSCLC was above 100 µM throughout.

In the case of `CCCCCCCCCCCCCCCCOCC(COP(=O)([O-])OCC[N+](C)(C)C)OCCCCCCCCCCCCCCCC` (centres undefined), the TGI with KM20L2 colon, in the assay on MALME-3M melanoma, in the assay on NCI/ADR-RES ovarian, in the assay with IGROV1 ovarian, in the assay on A498 renal and in the assay with COLO 205 colon was above 100 µM each time. The TGI in the assay with NCI-H522 lung, in the assay with SNB-78 CNS, in the assay with SK-OV-3 ovarian, in the assay on HCT-15 colon and with HOP-92 NSCLC was above 100 µM throughout.

Take `CCO[C@]12C[C@H](OC)[C@@]3(O)CC(C1[C@H]3O)C13C4C2[C@H](OC)C1[C@](COC)(CN4CC)[C@H](O)C[C@@H]3OC` (some centres undefined): the TGI with KM20L2 colon, with IGROV1 ovarian, in the assay with TK-10 renal, in the assay on COLO 205 colon, in the assay on SNB-78 CNS and in the assay on SK-OV-3 ovarian was above 100 µM throughout. The same compound returned a TGI in the assay on HCT-15 colon above 100 µM.

Consider `OCCN(CCO)c1ccc2c(c1)Cc1ccccc1-2`, for which the TGI in the assay on MALME-3M melanoma was above 100 µM; in the assay on PC-3 prostate, above 100 µM; in the assay with NCI/ADR-RES ovarian it was above 100 µM; in the assay with A498 renal, 80.5 µM; in the assay with TK-10 renal it was 55 µM; in the assay on COLO 205 colon, 35.7 µM. The TGI in the assay on T-47D breast was 57.8 µM; in the assay on MDA-MB-435 it was above 100 µM; in the assay on MDA-MB-231 breast, above 100 µM; in the assay with SK-OV-3 ovarian it was above 100 µM; in the assay with 786-0 renal, above 100 µM; in the assay with HCT-15 colon, above 100 µM. In the assay with HOP-92 NSCLC, this compound returned a TGI of 73.1 µM.
